Laboratory results reported in publication PMC8318231, “Rate-of-Kill (RoK) assays to triage large compound sets for Chagas disease drug discovery: Application to GSK Chagas Box” (PLoS Neglected Tropical Diseases, 2021).
Read-outs that look alike come from different tables or passages of the source.

Columns and labels:
[1] = tested on: T. cruzi Tulahuen trypomastigotes; assay: T. cruzi trypomastigote assay (Cell Titer-Glo viability, ATP luminescence); assay type: cell-based, Trypanosoma cruzi; settings: for Trypomastigotes pIC50 48 hours: 48 hours incubation; for Trypomastigotes pIC50 48 hours / Trypomastigotes pIC50 72 hours: pIC50 = -log10 IC50 in molar units; for Trypomastigotes pIC50 72 hours: 72 hours incubation; for IC50: Trypanosoma cruzi, TULAHUEN
Method in brief: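 Compounds were tested in dose response or once at a final 5 μM against 5 × 10^4 trypomastigotes per well (DMEM, 2% FBS), collected on days 5–8 from LLC-MK2 infected cultures. ATP luminescence via CellTiter-Glo reports live parasites; DMSO defines 0% and cell-free wells 100% effect.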

[2] = tested on: T. cruzi intracellular amastigotes in H9c2 cells; assay: Rate-of-Kill (RoK) high-content imaging assay, amastigotes per cell (AM/CELL) and curve descriptors; assay type: cell-based, Trypanosoma cruzi; design: key to ME_24h / ME_48h / ME_72h: % reduction in parasite burden (cidal response); t50pct_MCC50 / t50pct_Cmax: unit not given here; settings: for ME_24h: 24h; for ME_48h: 48h; for ME_72h: 72h; for tlag_Cmax / t50pct_Cmax / t50%_Cmax: at Cmax; for ME_24h (%): maximum effect at 24 h; for ME_24h (%) / ME_48h (%) / ME_72h (%): RoK assay; for ME_48h (%): maximum effect at 48 h; for ME_72h (%): maximum effect at 72 h
Method in brief: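 Readouts at each time point are amastigotes per cell and host nuclei count (cytotoxicity), from DRAQ5 high-content imaging. Infection: trypomastigotes on H9c2 at MOI 8 for 18 h. Dosing was 5 μM single point or 11 points, 1/3 steps from 50 μM. Effect scaled between 4 h infected and uninfected controls.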

[3] = maximum percentage of parasite burden reduction reached by any concentration, 24 hours

SMILES	Trypomastigotes pIC50 48 hours [1]	Trypomastigotes pIC50 72 hours [1]	ME_24h ([2]; figure 5)	ME_48h ([2]; figure 5)	ME_72h ([2]; figure 5)	MCCE ([2]; RoK curve descriptor) [µM]	AM/CELL NORM ([2]; Time 4, sheet figure 4 A)	AM/CELL NORM ([2]; Time 24, sheet figure 4 A)	AM/CELL NORM ([2]; Time 48, sheet figure 4 A)	AM/CELL NORM ([2]; Time 72, sheet figure 4 A)	tlag_Cmax [2] [h]	t50pct_Cmax ([2]; figure 5)	tlag_Cmax ([2]; figure 5)	t50pct_MCC50 ([2]; at MCC50, figure 5)	tlag_MCC50 ([2]; at MCC50, figure 5)	MCCE ([2]; figure 5)	ME_24h (%) [2] [%]	ME_48h (%) [2] [%]	ME_72h (%) [2] [%]	ME 24h (maximum effect at 24 hours, intracellular amastigotes) [2, 3] [%]	also measured
CN(C(=O)Nc1ccc2c(c1)CCN(C1CCC1)CC2)c1ccc(C#N)cc1.Cl [TCMDC-143526]	< 4.3	< 4.3	-107.476	-30.6533	30.9234	1.9	4.08	-107.476	-30.6533	30.9234	24.0	72	24	72	72	1.852	-107.5	-30.7	30.9	-107.476	72 pIC50 (trypomastigotes, raw data of Fig 1D) ([1]; 72 hours, plotted values, censored values given without sign): < 4.3; 48 pIC50 ([1]; trypomastigote assay, 48 h, figure 1A): < 4.3; 72 pIC50 ([1]; trypomastigote assay, 72 h, figure 1A): < 4.3; 72 pIC50 ([1]; trypomastigote assay, 72 h, figure 1B): < 4.3; MCC50 ([2]; figure 5): 50 µM
COc1cccc(C(=O)[C@H]2C[C@@H]2CN(Cc2cccnc2)Cc2cccnc2)c1 [TCMDC-143593]	5.2	< 4.3	-243.773	-91.7284	36.534	0.02	-1.514	-270.363	-91.7284	-0.04888	24.0	72	24	72	72	0.02286	-243.8	-91.7	36.5	-243.773	MCC50 ([2]; figure 5): 50 µM
COc1cccc(CCNC(=O)C(c2cn[nH]c2)N2CCN(c3ccc(Cl)cc3)CC2)c1 (stereo not shown) [TCMDC-143434]	4.4	4.5	51.5158	102.276	117.751	0.07	2.576	51.5158	102.276	117.751	4.0	24	4	72	24	0.06859	51.5	102.3	117.8	51.5158	MCC50 ([2]; RoK curve descriptor): 5.6 µM; t50%_Cmax [2]: 24.0 h; t50%_MCC50 ([2]; at MCC50): 72.0 h; tlag_MCC50 ([2]; at MCC50): 24.0 h; MCC50 ([2]; figure 5, in µM): 5.556
NC(=O)c1ccccc1Nc1nc(NC2CCCCC2)nc2[nH]ccc12 [TCMDC-143314]	5.1	4.4	-235.508	-846.189	-1441.39	0.6					72.0	72	72	72	72	0.6173	-235.5	-846.2	-1441.4	91.926	AM/CELL NORM ([2]; Time 4, figure 4 A): -0.353; AM/CELL NORM ([2]; Time 24, figure 4 A): -235.508; AM/CELL NORM ([2]; Time 48, figure 4 A): -898.709; AM/CELL NORM ([2]; Time 72, figure 4 A): -1946.1; MCC50 ([2]; figure 5): 50 µM
O=c1[nH]cnc2c([C@@H]3O[C@H](CO)[C@@H](O)[C@H]3O)n[nH]c12 [TCMDC-143083, Formycin B]			45.1391	64.8809	83.4402	0.6	22.2526	28.621	68.9466	69.7149	4.0	48	4	60	4	0.6173	45.1	64.9	83.4		activity versus trypomastigotes at 48 hours (in words) ([1]; 48 hours): inactive; activity versus trypomastigotes at 72 hours (in words) ([1]; 72 hours): active; IC50 ([1]; 48 h, read-out: Trypomastigotes pIC50 48 hours (converted)): > 50.1 µM; IC50 ([1]; 72 h, read-out: Trypomastigotes pIC50 72 hours (converted)): 2.51 µM; ME (maximum effect) in RoK assay (in words) [2]: ME positive for all times; cidality in the RoK assay (in words) [2]: cidal; MCC50 ([2]; RoK curve descriptor): 3.7 µM; Emax ([2]; Trypanosoma cruzi, H9c2, maximum percentage of parasite burden reduction reached by any concentration, 24 hours, read-out: ME 24h (maximum effect at 24 hours, intracellular amastigotes)): 48.3%; t50%_Cmax [2]: 48.0 h; t50%_MCC50 ([2]; at MCC50): 60.0 h; tlag_MCC50 ([2]; at MCC50): 4.0 h; MCC50 ([2]; figure 5, in µM): 3.7037
